Experimental data taken from ChEMBL document CHEMBL5137030 (Eur J Med Chem, 2022).
Activity calls are given as the source filed them. The calls are words filed in the database; no cut-off is given here.

Legend:
[1] = tested on: Human alphaherpesvirus 2; experiment: Antiviral activity against HSV-2 333vhsB infected in African green monkey Vero cells assessed as inhibition of viral replication by measuring reduction in virus-induced cytopathic effect at 50 uM incubated for 20 hrs by colorimetric analysis; type: functional, organism-based
[2] = tested on: Human alphaherpesvirus 2; experiment: (§1) Antiviral activity against HSV-2 infected in African green monkey Vero cells assessed as inhibition of viral replication by measuring log suppression of virus-induced cytopathic effect at 5 uM incubated for 1 hr followed by washing with PBS and subsequent treatment with compound for 24 hrs by plaque assay; type: functional; conditions: time 25 hrs
[3] = tested on: Human alphaherpesvirus 2; experiment: as §1, with “1” for “5”; type: functional; conditions: time 25 hrs
[4] = tested on: Human alphaherpesvirus 2; experiment: Antiviral activity against HSV-2 infected in African green monkey Vero cells assessed as inhibition of viral replication incubated for 1 hr followed by washing with PBS and subsequent treatment with compound for 24 hrs by plaque reduction assay; type: functional, organism-based; conditions: Human alphaherpesvirus 2, Vero
[5] = Apparent permeability of the compound across apical to basolateral side in human Caco-2 cells at 10 uM incubated for 2 hrs; type: ADME, cell-based; conditions: caco-2, 2 h
[6] = Half life in human liver microsomes at 2 uM in presence of NADPH by LC/MS/MS analysis; type: ADME, Microsome
[7] = Half life in mouse liver microsomes at 2 uM in presence of NADPH by LC/MS/MS analysis; type: ADME, Microsome
[8] = Cytotoxicity against human HepDES19 cells assessed as reduction in cell viability incubated for 72 hrs by MTS assay; type: toxicity, cell-based; conditions: hepdes19, 72 h
[9] = tested on: Human alphaherpesvirus 1; experiment: as §1, with “HSV-1” for “HSV-2”; type: functional; conditions: time 25 hrs
[10] = tested on: Human alphaherpesvirus 1; experiment: as §1, with “HSV-1” for “HSV-2”, “1” for “5”; type: functional; conditions: time 25 hrs
[11] = tested on: Vero; experiment: Cytotoxicity against African green monkey Vero cells assessed as reduction in cell viability incubated for 24 hrs by MTS assay; conditions: chlorocebus sabaeus
[12] = Oral bioavailability in BALB/c mouse at 3 mg/kg by LC/MS/MS analysis; type: ADME, organism-based; conditions: in vivo
[13] = tested on: Human alphaherpesvirus 1; experiment: Antiviral activity against HSV-1 infected in African green monkey Vero cells assessed as inhibition of viral replication incubated for 1 hr followed by washing with PBS and subsequent treatment with compound for 24 hrs by plaque reduction assay; type: functional, organism-based; conditions: Human alphaherpesvirus 1, Vero
[14] = Half-life in BALB/c mouse at 3 mg/kg, po and 1 mg/kg, iv by LC/MS/MS analysis; type: ADME, organism-based; conditions: in vivo
[15] = tested on: Human alphaherpesvirus 2; experiment: Antiviral activity against wild-type HSV-2 186 infected in African green monkey Vero cells assessed as inhibition of viral replication incubated for 1 hr followed by washing with PBS and subsequent treatment with compound for 24 hrs by plaque reduction assay; type: functional, organism-based; conditions: Human alphaherpesvirus 2, 186, Vero
[16] = tested on: Human alphaherpesvirus 2; experiment: Antiviral activity against thymidine kinase-deficient ACV-resistant HSV-2 186 TKdeltakpn infected in African green monkey Vero cells assessed as inhibition of viral replication incubated for 1 hr followed by washing with PBS and subsequent treatment with compound for 24 hrs by plaque reduction assay; type: functional, organism-based; conditions: Human alphaherpesvirus 2, 186 TKdeltakpn

Structure (SMILES) | Activity [1] | log(activity) [2] | log(activity) [3] | EC50 [4] [nM] | CC50 [8] [nM] | other results
Cc1ccc(-c2cc(CC3CCCCC3)n(O)c(=O)c2)cc1 | Active | 0.34 | 0.02 | – | – | –
O=c1cc(C2CCCCC2)ccn1O | Active | 0.04 | 0.2 | – | – | –
Cc1cc(Cc2ccc3ccccc3c2)n(O)c(=O)c1 | Active | 3.63 | 1.34 | – | – | –
O=c1cc(-c2ccccc2)cc(CC2CCCCC2)n1O | Active | 5.29 | 4.84 | 390 | 20000 | Papp [5]: 2.75 10^-6 cm/s; t1/2 [6]: < 5 min; t1/2 [7]: < 5 min
O=c1cc(/C=C/c2ccccc2)cc(CC2CCCCC2)n1O | Active | 4.77 | 4.95 | 270 | 20000 | log(activity) [9]: 4.42; log(activity) [10]: 4.33
Cc1cc(Cc2cccc(-c3ccccc3)c2)n(O)c(=O)c1 | Active | 4.2 | 4.22 | 390 | 24000 | Papp [5]: 1.09 10^-6 cm/s; t1/2 [6]: < 5 min; t1/2 [7]: < 5 min
COc1cccc(Cc2cc(C)cc(=O)n2O)c1 | Active | 4.57 | 2.15 | 270 | 60000 | Papp [5]: 2.43 10^-7 cm/s; t1/2 [6]: 19 min; CC50 [11]: > 100000 nM; t1/2 [7]: 15 min
Nc1nc2c(ncn2COCCO)c(=O)[nH]1 [ACYCLOVIR] | – | 2.9 | 1.79 | – | – | log(activity) [9]: 3.36; log(activity) [10]: 2.42
COc1ccc(Cc2cc(C)cc(=O)n2O)cc1 | Active | 4.04 | 1.23 | – | – | –
O=c1cc(-c2ccccc2)cc(Cc2ccccc2)n1O | Active | 5.29 | 2.72 | 410 | 18000 | –
Cc1ccccc1-c1cc(CC2CCCCC2)n(O)c(=O)c1 | Active | 5.65 | 0.14 | – | – | –
O=c1ccc(Cc2ccccc2)cn1O | Active | -0.03 | 0.1 | – | – | –
Cc1cc(C2CCN(C(=O)C(C)C)CC2)n(O)c(=O)c1 | Active | 0.4 | -0.08 | – | – | –
Cc1cc(Cc2ccc(OCc3ccccc3)cc2)n(O)c(=O)c1 | Active | 4.25 | 4.1 | 130 | 19000 | Papp [5]: 9.42 10^-7 cm/s; log(activity) [9]: 5.18; log(activity) [10]: 4.74
O=c1cccc(Cc2ccccc2)n1O | Active | 2.75 | 0.34 | – | – | –
COc1ccccc1Cc1cc(C)cc(=O)n1O | Active | 3.9 | 1.02 | – | – | –
Cc1cc(Cc2ccccc2Cl)n(O)c(=O)c1 | Active | 4.3 | 2.46 | – | – | –
O=c1cc(Cc2ccccc2)ccn1O | Active | 0.03 | 0.4 | – | – | –
Cc1cc(Cc2cccc(Cl)c2)n(O)c(=O)c1 | Active | 4 | 1.82 | – | – | –
Cc1cc(Cc2ccc(Cl)cc2)n(O)c(=O)c1 | Active | 4.4 | 3.16 | 310 | 26000 | bioavailability [12]: 10%; EC50 [13]: 160 nM; log(activity) [9]: 4.27; t1/2 [14]: < 60 min; log(activity) [10]: 2.44
O=c1cc(/C=C/c2ccccc2)cc(Cc2ccccc2)n1O | Active | 4.62 | 1.46 | – | – | –

Structure (SMILES) | Activity [1] | log(activity) [2] | log(activity) [3] | EC50 [4] [nM] | CC50 [8] [nM] | other results
O=c1c2ccccc2cc(C2CCCCC2)n1O | Active | 4.48 | 1.01 | – | – | –
O=c1cc(Cc2ccccc2)cc(CC2CCCCC2)n1O | Active | 4.83 | 2.39 | – | – | –
Cc1cc(Cc2cccc(OCc3ccccc3)c2)n(O)c(=O)c1 | Active | 4.4 | 4.04 | 220 | 22000 | Papp [5]: 1.37 10^-6 cm/s; t1/2 [6]: < 5 min; t1/2 [7]: < 5 min
Cc1cc(Cc2ccccc2)n(O)c(=O)c1 | Active | 5.79 | 1.59 | 230 | 42000 | Papp [5]: 1.44 10^-5cm/s; log(activity) [9]: 4.71; t1/2 [6]: 6 min; CC50 [11]: > 100000 nM; t1/2 [7]: < 5 min; log(activity) [10]: 1.07
Cc1cc(C2CCOCC2)n(O)c(=O)c1 | Active | 0.09 | -0.23 | – | – | –
O=c1cc(Cc2ccccc2)cc(Cc2ccccc2)n1O | Active | 4.7 | 0.29 | – | – | –
O=c1c2ccccc2cc(Cc2ccccc2)n1O | Active | 4.03 | 0.73 | – | – | –
O=c1ccc(-c2ccccc2)cn1O [1-HYDROXY-5-PHENYLPYRIDIN-2(1H)-ONE] | Active | 0 | -0.03 | – | – | –
O=c1c2ccccc2cc(-c2ccccc2)n1O | Active | 4.04 | 0.01 | – | – | –
Cc1cc(C2CCCC2)n(O)c(=O)c1 | Active | 2.38 | 0.37 | – | – | –
O=c1cc(-c2ccccc2)ccn1O | Active | 0.02 | 0.05 | – | – | –
O=c1c2ccccc2cc(CC2CCCCC2)n1O | Active | 4.77 | 2.68 | 280 | 49000 | EC50 [13]: 240 nM; log(activity) [9]: 4.32; log(activity) [10]: 4.16
O=c1cccc(C2CCCCC2)n1O | Active | 5.01 | 1.23 | 550 | 22000 | –
Cc1cccc(-c2cc(CC3CCCCC3)n(O)c(=O)c2)c1 | Active | 3.95 | 3.26 | 310 | 16000 | log(activity) [9]: 4.59; log(activity) [10]: 4.22
Cc1cc(C2CCCCCC2)n(O)c(=O)c1 | Active | 5.09 | 4.15 | 160 | 18000 | Papp [5]: 5.74 10^-6 cm/s; EC50 [13]: 60 nM; log(activity) [9]: 5.27; t1/2 [6]: < 5 min; t1/2 [7]: 8 min; log(activity) [10]: 4.67
Cc1cc(C2CCC2)n(O)c(=O)c1 | Active | 1.45 | 0.26 | – | – | –
Cc1cc(CC2CCCCC2)n(O)c(=O)c1 | Active | 4.9 | 4.19 | 260 | 28000 | Papp [5]: 3.14 10^-5cm/s; bioavailability [12]: 10%; log(activity) [9]: 4.43; t1/2 [6]: < 5 min; t1/2 [14]: < 60 min; t1/2 [7]: < 5 min; log(activity) [10]: 3.98
O=c1cc(-c2ccccc2)cc(C2CCCCC2)n1O | Active | 4.08 | 3.73 | 290 | 20000 | EC50 [15]: < 300 nM; Papp [5]: 4.33 10^-6 cm/s; bioavailability [12]: 10%; log(activity) [9]: 5.37; t1/2 [6]: < 5 min; t1/2 [14]: < 60 min; EC50 [16]: < 300 nM; t1/2 [7]: < 5 min; log(activity) [10]: 3.43
Cc1cc(Cc2ccccc2-c2ccccc2)n(O)c(=O)c1 | Active | 4.49 | 3.17 | 160 | 14000 | Papp [5]: 2.03 10^-7 cm/s; t1/2 [6]: < 5 min; t1/2 [7]: < 5 min
Cc1cc2ccccc2c(=O)n1O | Active | 0.28 | 0.01 | – | – | –
O=c1ccc(C2CCCCC2)cn1O | Active | 3.62 | 0.67 | – | – | –
